The source made the active and inactive calls. The rule behind the calls is not given here.
Columns and labels:
Exodeoxyribonuclease V = target: T1, Exodeoxyribonuclease V (Escherichia coli (strain K12), UniProt P04993+P07648+P08394); assay: E. coli RecBCD inhibitors, dose response, counter-screen for AddAB inhibitor project, absorbance, V66 E. coli, mutant T4 phage (AID 492957); type: functional, cell-based, Escherichia coli str. K-12 substr. MG1655
T1 sequence (P04993 whole entry): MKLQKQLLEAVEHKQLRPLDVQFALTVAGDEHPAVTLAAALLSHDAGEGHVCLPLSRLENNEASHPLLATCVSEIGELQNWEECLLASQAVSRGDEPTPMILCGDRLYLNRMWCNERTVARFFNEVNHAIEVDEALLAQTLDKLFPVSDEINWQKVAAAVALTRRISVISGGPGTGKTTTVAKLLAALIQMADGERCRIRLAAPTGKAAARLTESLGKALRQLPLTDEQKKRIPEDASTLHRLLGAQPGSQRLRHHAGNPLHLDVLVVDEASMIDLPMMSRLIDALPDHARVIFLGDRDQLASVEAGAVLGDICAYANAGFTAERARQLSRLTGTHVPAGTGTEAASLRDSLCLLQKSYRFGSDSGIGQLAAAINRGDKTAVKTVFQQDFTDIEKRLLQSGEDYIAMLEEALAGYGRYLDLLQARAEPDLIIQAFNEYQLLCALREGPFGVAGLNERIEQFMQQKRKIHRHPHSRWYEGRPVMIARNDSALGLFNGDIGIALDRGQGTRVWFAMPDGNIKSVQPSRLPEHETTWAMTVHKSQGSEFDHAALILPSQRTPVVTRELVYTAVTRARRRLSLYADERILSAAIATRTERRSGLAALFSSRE
T1 sequence (P07648 whole entry): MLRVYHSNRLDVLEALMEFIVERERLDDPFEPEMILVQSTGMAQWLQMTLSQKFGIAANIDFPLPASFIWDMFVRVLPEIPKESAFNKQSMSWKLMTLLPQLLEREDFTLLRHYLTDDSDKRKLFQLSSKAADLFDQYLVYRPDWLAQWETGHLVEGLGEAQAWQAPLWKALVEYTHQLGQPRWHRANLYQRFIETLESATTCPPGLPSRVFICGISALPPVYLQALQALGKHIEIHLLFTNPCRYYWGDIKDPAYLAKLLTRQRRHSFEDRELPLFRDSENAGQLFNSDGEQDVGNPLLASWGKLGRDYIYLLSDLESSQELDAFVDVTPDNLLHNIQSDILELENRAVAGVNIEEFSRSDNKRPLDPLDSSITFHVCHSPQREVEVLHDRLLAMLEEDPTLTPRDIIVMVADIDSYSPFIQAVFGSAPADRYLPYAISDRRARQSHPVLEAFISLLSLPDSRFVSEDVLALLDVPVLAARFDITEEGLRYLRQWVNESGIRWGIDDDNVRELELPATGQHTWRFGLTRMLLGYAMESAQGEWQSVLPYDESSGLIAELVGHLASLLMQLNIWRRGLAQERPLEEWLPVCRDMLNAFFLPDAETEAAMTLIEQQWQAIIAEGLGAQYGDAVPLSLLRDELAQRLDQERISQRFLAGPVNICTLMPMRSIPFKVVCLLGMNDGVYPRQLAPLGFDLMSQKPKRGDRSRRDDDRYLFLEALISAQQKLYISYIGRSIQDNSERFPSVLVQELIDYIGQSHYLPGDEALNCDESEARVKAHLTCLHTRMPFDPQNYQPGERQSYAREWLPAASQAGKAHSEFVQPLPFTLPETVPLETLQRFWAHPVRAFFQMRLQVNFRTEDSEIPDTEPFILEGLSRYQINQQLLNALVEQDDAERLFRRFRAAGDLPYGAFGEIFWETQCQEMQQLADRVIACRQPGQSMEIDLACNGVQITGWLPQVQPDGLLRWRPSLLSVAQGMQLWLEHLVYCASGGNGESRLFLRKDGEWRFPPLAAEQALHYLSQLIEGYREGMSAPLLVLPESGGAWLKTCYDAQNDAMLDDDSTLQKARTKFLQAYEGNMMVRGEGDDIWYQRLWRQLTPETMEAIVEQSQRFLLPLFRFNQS
T1 sequence (P08394 whole entry): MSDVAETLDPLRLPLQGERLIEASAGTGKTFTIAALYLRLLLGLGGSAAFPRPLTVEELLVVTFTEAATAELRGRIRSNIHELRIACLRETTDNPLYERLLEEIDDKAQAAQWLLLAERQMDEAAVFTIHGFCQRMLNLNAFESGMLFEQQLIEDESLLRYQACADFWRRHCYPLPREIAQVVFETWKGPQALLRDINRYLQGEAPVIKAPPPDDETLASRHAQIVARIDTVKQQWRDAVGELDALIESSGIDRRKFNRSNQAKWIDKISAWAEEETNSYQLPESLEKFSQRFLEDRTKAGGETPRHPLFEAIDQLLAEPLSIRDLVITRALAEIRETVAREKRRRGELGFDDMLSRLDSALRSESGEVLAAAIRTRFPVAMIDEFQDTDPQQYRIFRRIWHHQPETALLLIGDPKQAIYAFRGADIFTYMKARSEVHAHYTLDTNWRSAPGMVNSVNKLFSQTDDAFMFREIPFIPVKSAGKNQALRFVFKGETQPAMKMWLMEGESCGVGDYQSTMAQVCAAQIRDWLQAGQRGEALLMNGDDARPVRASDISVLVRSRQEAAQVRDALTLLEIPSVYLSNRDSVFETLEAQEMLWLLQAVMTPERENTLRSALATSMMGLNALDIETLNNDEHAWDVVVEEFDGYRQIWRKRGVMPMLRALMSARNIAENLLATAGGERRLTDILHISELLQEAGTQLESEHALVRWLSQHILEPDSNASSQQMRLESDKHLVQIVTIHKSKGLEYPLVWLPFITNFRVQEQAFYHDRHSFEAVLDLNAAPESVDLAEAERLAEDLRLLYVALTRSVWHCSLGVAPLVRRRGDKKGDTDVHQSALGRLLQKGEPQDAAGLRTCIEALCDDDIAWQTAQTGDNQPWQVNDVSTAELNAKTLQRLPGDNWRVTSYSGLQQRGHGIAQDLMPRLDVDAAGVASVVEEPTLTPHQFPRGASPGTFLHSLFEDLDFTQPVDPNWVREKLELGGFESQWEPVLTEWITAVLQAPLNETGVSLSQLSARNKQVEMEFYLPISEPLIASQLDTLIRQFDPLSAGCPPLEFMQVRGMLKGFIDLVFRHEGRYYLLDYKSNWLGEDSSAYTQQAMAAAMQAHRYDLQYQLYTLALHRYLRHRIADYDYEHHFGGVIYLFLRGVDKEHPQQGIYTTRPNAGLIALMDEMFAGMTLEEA

[1] = target: Protein kinase C zeta type (Homo sapiens, UniProt Q05513); type: functional;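 note: measured as one member of a broad kinase profiling panel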
[2] = target: Testis-specific serine/threonine-protein kinase 1 (Homo sapiens, UniProt Q9BXA7); type: functional
[3] = target: Vascular endothelial growth factor receptor 1 (Homo sapiens, UniProt P17948); type: functional;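 note: measured within a kinome-wide profiling panel, FLT1 as the panel member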
[4] = target: BDNF/NT-3 growth factors receptor (Homo sapiens, UniProt Q16620); type: functional;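 note: NTRK2 measured as one member of a broad kinome-wide kinase profiling panel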
Chain of BDNF/NT-3 growth factors receptor (Q16620 whole entry): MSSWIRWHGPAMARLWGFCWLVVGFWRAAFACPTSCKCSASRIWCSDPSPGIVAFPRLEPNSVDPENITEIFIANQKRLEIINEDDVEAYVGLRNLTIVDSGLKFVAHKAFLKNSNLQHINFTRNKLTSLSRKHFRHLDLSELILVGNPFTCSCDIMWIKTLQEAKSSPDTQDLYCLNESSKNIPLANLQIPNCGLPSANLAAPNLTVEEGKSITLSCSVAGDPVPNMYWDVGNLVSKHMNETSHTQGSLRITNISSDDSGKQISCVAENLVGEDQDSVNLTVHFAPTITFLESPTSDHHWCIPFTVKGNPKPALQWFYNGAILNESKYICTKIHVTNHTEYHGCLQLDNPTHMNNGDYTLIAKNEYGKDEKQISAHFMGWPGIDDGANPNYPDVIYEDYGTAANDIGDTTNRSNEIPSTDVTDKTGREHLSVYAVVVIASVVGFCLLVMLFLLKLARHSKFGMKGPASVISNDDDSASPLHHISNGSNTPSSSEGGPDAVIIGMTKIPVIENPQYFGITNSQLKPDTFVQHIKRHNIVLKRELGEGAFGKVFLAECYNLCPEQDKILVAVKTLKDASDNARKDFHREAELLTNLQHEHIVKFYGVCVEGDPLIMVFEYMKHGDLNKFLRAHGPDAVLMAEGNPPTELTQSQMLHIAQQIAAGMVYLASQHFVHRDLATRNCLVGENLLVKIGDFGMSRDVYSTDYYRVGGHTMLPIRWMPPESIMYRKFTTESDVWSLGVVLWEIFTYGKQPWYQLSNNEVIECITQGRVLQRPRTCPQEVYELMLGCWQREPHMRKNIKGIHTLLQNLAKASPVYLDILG

Chain of Testis-specific serine/threonine-protein kinase 1 (Q9BXA7 whole entry): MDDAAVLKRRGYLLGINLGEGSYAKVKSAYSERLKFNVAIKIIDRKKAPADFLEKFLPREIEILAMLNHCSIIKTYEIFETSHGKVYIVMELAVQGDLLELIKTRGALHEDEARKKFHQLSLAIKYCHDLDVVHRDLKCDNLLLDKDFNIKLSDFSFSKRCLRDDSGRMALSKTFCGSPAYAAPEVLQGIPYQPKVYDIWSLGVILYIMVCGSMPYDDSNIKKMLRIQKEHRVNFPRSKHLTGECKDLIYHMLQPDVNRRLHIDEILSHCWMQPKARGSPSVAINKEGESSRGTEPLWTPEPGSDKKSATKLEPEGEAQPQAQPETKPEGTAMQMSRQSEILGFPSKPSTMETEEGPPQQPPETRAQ
Chain of Protein kinase C zeta type (Q05513 whole entry): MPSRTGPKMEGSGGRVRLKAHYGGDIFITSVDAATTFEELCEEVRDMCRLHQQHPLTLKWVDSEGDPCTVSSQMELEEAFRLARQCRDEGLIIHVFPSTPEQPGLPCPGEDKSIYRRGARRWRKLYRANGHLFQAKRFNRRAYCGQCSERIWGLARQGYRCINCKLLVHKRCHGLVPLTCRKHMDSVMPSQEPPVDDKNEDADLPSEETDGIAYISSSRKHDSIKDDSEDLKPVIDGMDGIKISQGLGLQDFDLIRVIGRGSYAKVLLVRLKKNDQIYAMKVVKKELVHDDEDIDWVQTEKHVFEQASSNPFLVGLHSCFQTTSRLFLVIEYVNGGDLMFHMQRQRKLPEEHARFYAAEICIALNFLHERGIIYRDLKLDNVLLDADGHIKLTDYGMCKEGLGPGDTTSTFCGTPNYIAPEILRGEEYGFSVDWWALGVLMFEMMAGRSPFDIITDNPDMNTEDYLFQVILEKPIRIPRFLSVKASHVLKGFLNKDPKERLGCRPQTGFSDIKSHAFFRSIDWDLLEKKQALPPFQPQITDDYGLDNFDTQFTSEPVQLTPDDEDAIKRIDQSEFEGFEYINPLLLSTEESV
Chain of Vascular endothelial growth factor receptor 1 (P17948 whole entry): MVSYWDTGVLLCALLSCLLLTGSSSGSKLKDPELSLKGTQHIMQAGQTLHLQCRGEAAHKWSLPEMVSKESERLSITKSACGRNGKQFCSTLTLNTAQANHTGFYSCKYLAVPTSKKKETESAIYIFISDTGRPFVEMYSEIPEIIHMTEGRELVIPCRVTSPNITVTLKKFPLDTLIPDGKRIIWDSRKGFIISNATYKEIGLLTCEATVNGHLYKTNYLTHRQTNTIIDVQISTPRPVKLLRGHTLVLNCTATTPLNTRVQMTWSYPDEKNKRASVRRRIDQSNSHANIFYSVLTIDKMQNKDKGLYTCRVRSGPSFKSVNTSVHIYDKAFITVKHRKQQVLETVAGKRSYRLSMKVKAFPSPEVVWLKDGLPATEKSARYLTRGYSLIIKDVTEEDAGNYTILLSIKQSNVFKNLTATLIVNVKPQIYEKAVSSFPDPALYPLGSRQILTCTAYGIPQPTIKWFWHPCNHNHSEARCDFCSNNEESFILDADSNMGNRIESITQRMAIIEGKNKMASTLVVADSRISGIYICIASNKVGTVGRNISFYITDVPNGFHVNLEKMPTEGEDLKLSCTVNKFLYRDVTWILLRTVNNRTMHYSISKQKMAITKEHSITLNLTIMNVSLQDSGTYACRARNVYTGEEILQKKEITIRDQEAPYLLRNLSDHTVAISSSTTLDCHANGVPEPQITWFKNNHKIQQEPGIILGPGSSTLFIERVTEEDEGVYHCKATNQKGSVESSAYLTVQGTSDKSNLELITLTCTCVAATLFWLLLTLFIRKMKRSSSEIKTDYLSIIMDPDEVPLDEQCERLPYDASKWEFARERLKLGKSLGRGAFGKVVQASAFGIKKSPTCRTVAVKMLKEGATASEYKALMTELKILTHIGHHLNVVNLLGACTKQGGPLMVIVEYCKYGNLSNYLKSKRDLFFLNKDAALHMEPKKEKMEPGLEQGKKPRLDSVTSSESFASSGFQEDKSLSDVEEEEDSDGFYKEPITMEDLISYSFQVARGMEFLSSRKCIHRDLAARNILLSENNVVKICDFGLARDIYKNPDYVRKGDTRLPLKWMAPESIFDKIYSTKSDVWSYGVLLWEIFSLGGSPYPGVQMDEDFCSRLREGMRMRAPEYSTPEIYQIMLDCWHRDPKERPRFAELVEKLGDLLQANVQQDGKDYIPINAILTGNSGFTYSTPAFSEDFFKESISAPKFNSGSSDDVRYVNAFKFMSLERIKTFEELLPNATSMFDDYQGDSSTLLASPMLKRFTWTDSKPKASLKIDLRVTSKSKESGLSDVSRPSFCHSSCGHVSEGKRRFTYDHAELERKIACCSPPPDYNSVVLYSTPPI

| Ki [1] | Ki [2] | Ki [3] | Ki [4] | SMILES | IC50 (Exodeoxyribonuclease V) |
| --- | --- | --- | --- | --- | --- |
|  |  |  |  | COc1ccc(-c2nnc(NC(=O)c3ccc(F)cc3)o2)cc1 | > 118000 nM (inactive) |
| 25.1 nM (active) | 50.1 nM (active) | > 398 nM (inactive) | > 5010 nM (inactive) | CCn1c(-c2nonc2N)nc2cnc(Oc3cccc(NC(=O)c4ccc(OCCN5CCOCC5)cc4)c3)cc21 [GSK-269962A] |  |

Reference: ChEMBL document CHEMBL1201862, “PubChem BioAssay data set” (2004)
